For experiment [1], the target named is RAC-beta serine/threonine-protein kinase (Homo sapiens) (UniProt P31751). Put plainly: Inhibition of AKT2 (unknown origin) assessed as residual activity at 100 nM by KINOMEscan analysis relative to control.
Experiment [2] addresses Cyclin-dependent kinase 11B (Homo sapiens) (UniProt P21127). Kind of experiment: Inhibition of CDK11 (unknown origin) assessed as residual activity at 100 nM by KINOMEscan analysis relative to control.
Experiment [3] addresses Dual specificity protein kinase CLK1 (Homo sapiens) (UniProt P49759). Kind of experiment: Inhibition of CLK1 (unknown origin) assessed as residual activity at 100 nM by KINOMEscan analysis relative to control.
Experiment [4] addresses Tyrosine-protein kinase CSK (Homo sapiens) (UniProt P41240). Kind of experiment: Inhibition of CSK (unknown origin) assessed as residual activity at 100 nM by KINOMEscan analysis relative to control.
In experiment [5] the target is Mitogen-activated protein kinase 4 (Homo sapiens) (UniProt P31152). Put plainly: Inhibition of ERK4 (unknown origin) assessed as residual activity at 100 nM by KINOMEscan analysis relative to control.
The target in experiment [6] is T1, Mitogen-activated protein kinase 15 (Homo sapiens) (UniProt Q8TD08).
T1 sequence (whole entry): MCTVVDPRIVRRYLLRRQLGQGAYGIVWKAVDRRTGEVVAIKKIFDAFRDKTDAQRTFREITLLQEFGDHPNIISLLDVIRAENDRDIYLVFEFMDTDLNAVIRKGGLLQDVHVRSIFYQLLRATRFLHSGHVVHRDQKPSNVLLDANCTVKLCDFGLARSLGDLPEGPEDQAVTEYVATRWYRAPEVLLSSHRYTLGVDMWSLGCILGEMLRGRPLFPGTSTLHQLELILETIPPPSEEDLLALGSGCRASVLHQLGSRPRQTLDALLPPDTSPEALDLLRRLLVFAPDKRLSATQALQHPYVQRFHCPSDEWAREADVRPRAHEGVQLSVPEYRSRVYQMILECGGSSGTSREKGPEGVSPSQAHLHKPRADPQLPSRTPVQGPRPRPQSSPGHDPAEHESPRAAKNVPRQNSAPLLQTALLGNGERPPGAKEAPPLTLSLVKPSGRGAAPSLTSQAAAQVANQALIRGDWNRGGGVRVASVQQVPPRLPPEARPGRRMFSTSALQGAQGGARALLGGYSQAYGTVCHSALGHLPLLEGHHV
Kind of experiment: Inhibition of ERK8 (unknown origin) assessed as residual activity at 100 nM by KINOMEscan analysis relative to control.

The target of experiment [7] is Mitogen-activated protein kinase kinase kinase kinase 4 (Homo sapiens) (UniProt O95819). Kind of experiment: Inhibition of MAP4K4 (unknown origin) assessed as residual activity at 100 nM by KINOMEscan analysis relative to control.
In experiment [8] the target is Serine/threonine-protein kinase MARK2 (Homo sapiens) (UniProt Q7KZI7). Kind of experiment: Inhibition of MARK2 (unknown origin) assessed as residual activity at 100 nM by KINOMEscan analysis relative to control.
For experiment [9], the target named is T2, Protein kinase C iota type (Homo sapiens) (UniProt P41743).
T2 sequence (whole entry): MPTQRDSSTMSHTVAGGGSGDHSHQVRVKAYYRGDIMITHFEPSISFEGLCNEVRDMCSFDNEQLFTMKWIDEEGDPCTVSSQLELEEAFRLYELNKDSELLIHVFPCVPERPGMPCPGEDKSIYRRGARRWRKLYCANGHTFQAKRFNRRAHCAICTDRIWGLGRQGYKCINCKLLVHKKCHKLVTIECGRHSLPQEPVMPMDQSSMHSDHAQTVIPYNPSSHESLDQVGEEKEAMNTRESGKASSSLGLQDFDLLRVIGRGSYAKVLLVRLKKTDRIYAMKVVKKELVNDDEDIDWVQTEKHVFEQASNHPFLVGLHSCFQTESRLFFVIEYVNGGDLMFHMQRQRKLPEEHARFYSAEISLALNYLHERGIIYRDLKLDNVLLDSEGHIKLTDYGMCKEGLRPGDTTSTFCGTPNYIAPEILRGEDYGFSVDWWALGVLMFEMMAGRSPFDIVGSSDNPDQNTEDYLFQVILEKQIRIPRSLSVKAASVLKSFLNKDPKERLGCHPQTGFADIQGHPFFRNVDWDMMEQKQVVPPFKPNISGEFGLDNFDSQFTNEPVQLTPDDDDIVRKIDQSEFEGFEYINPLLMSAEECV
Put plainly: Inhibition of PRKCI (unknown origin) assessed as residual activity at 100 nM by KINOMEscan analysis relative to control.

Experiment [10] concerns the target Proto-oncogene tyrosine-protein kinase ROS (Homo sapiens) (UniProt P08922). Put plainly: Inhibition of ROS1 (unknown origin) assessed as residual activity at 100 nM by KINOMEscan analysis relative to control.
The target of experiment [11] is T3, Serine/threonine-protein kinase TAO1 (Homo sapiens) (UniProt Q7L7X3).
T3 sequence (whole entry): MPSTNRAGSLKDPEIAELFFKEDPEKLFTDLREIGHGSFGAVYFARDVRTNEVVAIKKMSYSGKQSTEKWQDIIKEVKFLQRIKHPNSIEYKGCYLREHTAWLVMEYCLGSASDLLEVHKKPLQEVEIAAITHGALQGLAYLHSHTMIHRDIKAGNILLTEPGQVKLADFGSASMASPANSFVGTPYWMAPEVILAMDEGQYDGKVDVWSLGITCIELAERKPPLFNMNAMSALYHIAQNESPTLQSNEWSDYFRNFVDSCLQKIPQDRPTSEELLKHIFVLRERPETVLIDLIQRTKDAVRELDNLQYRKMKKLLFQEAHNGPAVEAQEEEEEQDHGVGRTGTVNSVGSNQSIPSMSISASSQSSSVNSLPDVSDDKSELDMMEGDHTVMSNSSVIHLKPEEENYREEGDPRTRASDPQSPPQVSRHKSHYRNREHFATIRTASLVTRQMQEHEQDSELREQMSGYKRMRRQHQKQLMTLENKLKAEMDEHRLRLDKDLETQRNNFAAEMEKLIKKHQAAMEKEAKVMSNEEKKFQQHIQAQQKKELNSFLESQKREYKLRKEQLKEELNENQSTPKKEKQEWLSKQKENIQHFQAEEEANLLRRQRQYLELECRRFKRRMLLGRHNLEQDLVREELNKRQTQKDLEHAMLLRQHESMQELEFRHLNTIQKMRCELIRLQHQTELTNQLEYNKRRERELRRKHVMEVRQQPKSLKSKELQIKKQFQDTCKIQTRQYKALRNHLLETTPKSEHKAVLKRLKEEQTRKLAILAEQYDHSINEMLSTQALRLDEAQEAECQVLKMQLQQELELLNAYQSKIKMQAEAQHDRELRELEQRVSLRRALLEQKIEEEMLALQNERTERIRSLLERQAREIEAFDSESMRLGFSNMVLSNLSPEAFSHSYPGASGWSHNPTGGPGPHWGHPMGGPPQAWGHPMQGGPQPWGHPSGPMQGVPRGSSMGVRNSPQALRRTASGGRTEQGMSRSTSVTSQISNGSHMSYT
Put plainly: Inhibition of TAOK1 (unknown origin) assessed as residual activity at 100 nM by KINOMEscan analysis relative to control.

Structures are written as SMILES.

Drawing on ChEMBL document CHEMBL5678818, “Discovery of potent SOS1 inhibitors that block RAS activation via disruption of the RAS-SOS1 interaction” (Proc Natl Acad Sci U S A, 2019), this text covers Activity for one compound.

Sequence of Mitogen-activated protein kinase 4 (Homo sapiens) (P31152 whole entry): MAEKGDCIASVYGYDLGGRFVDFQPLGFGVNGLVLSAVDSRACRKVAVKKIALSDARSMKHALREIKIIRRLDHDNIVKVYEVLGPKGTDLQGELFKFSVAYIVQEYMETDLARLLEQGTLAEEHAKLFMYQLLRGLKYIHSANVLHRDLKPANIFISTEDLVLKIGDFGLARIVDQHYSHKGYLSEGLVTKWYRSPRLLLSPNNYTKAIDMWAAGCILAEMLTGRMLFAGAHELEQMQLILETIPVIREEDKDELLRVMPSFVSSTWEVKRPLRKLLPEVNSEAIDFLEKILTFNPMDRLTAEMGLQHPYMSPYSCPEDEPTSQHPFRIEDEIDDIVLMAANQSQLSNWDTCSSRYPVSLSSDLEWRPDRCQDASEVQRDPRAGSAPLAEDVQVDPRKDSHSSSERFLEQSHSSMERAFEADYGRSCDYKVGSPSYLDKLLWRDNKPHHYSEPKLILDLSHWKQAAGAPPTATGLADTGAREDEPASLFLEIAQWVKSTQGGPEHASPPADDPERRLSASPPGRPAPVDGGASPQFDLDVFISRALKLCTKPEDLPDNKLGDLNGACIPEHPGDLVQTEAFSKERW
Sequence of Serine/threonine-protein kinase MARK2 (Homo sapiens) (Q7KZI7 whole entry): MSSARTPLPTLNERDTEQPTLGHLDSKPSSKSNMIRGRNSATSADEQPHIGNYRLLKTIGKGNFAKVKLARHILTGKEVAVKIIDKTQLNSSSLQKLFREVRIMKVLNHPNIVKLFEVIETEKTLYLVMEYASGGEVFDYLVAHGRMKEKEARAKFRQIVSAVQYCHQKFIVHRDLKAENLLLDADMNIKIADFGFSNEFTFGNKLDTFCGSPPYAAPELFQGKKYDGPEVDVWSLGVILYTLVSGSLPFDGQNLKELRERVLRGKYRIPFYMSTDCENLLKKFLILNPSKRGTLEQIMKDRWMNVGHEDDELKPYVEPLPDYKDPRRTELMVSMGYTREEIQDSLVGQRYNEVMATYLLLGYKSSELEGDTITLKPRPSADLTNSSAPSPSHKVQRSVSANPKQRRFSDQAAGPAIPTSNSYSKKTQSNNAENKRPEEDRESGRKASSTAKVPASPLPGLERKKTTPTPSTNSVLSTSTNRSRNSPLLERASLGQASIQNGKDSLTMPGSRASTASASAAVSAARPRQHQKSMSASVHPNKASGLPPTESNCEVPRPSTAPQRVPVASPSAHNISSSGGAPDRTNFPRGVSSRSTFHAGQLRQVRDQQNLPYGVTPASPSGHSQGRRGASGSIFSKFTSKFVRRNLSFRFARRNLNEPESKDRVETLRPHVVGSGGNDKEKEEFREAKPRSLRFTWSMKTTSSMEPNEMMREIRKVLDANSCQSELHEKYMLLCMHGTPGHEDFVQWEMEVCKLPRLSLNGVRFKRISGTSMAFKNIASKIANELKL
Sequence of Cyclin-dependent kinase 11B (Homo sapiens) (P21127 whole entry): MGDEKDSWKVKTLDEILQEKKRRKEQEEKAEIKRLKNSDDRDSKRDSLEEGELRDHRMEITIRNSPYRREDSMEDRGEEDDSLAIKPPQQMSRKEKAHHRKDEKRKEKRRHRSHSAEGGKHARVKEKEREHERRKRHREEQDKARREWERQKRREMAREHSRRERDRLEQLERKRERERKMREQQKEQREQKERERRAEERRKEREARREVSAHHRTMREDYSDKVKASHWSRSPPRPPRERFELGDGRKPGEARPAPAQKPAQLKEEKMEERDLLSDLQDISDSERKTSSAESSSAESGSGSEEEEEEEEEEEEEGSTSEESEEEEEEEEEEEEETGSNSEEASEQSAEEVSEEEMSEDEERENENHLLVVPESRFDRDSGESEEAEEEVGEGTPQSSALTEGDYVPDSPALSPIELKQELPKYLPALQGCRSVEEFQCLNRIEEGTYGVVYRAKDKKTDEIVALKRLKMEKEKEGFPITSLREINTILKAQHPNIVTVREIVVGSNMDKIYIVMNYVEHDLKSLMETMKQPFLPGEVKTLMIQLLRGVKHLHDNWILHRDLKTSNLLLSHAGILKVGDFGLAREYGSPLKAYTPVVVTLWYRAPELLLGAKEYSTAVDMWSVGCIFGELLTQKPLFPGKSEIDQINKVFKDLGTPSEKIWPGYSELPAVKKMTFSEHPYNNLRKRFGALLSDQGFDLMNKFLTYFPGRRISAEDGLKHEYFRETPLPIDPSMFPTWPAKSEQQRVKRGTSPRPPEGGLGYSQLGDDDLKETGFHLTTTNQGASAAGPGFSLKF
Sequence of Proto-oncogene tyrosine-protein kinase ROS (Homo sapiens) (P08922 whole entry): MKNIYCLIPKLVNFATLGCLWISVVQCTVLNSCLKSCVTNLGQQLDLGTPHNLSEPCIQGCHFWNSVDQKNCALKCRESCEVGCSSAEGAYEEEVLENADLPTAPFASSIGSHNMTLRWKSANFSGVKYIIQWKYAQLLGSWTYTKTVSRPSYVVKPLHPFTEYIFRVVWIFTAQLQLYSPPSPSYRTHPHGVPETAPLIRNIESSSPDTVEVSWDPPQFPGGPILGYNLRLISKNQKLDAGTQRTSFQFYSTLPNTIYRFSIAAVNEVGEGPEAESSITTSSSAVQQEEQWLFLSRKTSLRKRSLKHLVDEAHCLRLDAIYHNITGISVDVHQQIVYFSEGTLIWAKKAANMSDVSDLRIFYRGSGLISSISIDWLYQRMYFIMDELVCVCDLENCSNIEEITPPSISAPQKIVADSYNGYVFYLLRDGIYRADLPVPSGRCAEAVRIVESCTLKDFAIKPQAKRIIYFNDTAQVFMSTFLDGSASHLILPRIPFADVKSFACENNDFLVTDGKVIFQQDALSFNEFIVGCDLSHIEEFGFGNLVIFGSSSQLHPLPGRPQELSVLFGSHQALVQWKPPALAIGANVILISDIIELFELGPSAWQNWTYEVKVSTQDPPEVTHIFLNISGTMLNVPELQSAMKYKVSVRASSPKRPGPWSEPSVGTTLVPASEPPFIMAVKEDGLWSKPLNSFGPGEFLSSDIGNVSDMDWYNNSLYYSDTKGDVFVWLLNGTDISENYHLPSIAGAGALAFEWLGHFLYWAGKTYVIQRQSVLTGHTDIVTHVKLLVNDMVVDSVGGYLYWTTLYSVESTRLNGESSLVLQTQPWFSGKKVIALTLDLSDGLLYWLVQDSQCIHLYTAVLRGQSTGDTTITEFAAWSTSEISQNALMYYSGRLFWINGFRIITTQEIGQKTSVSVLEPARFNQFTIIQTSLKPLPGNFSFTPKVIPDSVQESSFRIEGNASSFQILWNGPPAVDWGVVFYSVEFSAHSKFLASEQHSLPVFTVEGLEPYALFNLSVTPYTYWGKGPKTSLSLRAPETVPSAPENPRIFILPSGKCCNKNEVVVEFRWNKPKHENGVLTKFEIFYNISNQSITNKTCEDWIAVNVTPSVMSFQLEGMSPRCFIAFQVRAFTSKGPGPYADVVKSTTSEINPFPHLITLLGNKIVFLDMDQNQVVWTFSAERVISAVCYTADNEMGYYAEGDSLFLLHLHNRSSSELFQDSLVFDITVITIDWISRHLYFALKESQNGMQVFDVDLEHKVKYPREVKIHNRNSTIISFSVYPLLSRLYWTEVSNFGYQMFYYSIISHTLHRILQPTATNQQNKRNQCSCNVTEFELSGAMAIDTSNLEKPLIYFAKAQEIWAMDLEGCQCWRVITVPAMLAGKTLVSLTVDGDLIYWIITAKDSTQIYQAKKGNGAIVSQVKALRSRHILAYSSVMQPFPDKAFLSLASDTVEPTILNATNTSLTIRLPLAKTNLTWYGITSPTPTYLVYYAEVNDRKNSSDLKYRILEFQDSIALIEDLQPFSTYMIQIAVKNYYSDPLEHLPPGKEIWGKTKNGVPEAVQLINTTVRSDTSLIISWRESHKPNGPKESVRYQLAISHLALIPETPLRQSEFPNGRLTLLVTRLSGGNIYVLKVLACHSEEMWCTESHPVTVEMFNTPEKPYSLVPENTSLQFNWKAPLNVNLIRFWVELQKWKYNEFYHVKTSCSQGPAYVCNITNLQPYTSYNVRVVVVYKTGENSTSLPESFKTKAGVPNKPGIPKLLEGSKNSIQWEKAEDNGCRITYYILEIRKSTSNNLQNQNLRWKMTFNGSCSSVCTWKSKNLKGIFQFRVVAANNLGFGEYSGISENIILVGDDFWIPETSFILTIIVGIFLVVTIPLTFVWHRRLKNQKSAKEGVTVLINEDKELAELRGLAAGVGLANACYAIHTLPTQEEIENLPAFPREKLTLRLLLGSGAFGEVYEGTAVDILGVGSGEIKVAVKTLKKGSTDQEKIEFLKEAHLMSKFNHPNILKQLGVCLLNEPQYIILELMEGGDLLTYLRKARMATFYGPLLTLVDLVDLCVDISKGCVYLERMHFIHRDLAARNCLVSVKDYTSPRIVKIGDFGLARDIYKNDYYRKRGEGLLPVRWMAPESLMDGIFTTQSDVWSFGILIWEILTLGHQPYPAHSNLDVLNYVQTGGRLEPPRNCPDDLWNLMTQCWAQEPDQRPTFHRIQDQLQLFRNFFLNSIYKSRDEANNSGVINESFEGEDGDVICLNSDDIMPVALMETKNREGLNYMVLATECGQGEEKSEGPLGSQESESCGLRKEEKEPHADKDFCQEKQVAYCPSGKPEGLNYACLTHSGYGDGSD
Sequence of RAC-beta serine/threonine-protein kinase (Homo sapiens) (P31751 whole entry): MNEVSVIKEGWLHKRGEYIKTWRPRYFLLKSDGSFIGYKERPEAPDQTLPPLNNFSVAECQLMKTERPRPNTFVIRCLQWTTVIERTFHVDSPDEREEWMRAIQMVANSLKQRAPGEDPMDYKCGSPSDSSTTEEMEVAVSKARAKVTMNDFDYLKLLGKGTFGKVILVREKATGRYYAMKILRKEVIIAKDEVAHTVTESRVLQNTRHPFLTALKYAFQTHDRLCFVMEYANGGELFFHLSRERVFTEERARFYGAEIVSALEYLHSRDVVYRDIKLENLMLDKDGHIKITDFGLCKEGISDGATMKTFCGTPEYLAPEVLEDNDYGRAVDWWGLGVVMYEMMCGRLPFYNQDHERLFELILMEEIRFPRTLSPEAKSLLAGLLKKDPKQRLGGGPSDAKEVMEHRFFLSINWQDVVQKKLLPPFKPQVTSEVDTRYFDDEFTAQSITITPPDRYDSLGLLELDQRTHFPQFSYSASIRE

As for `COc1cc2ncnc(N[C@H](C)c3cccc4ccccc34)c2cc1OC`, the Activity was 88% in experiment [1]; 100% in [2]; 91% in experiment [3]; 90% in [4]; 100% in experiment [5]; 88% in experiment [6]. Also, the Activity in experiment [7] stood at 65%; in [8] it was 82%; in experiment [9], 84%; in experiment [10], 100%; in experiment [11], 88%.
